Legend:
Format in all cases: in vivo
Setaria viridis (SETVI) = assay: A. Herbicidal pre-emergence efficacy, SETVI
Excerpt: (§1) Seeds of mono- and dicotyledonous weed plants were placed in plastic pots in sandy loam soil (doubly sown with one species each of mono- or dicotyledonous weed plants per pot) and covered with soil. The compounds of the invention, formulated in the form of wettable powders (WP) or as emulsion concentrates (EC), were then applied onto the surface of the covering soil as aqueous suspension or emulsion with addition of 0.5% additive at a water application rate of 600 liters per hectare (converted). After the treatment, the pots were placed in a greenhouse and kept under good growth conditions for the test plants. After about 3 weeks, the efficacy of the preparations was scored visually in comparison with untreated controls as percentages.
(§2) For example, • 100% efficacy=plants have died, • 0% efficacy=like untreated control plants.
(§3) Tables A1a to A12c below show the effects of selected compounds of the general formula (I) according to table 1 on various harmful plants at an application rate corresponding to 1280 g/ha or less, which were obtained by the experimental procedure mentioned above.

[1] = tested on: Echinochloa crus-galli (ECHCG); assay: B. Herbicidal post-emergence efficacy, ECHCG; conditions: 1280 g/ha, rated visually after about 3 weeks
Procedure: (§4) Seeds of mono- and dicotyledonous weed plants were placed in plastic pots in sandy loam soil (doubly sown with in each case one species of mono- or dicotyledonous weed plants per pot), covered with soil and cultivated in a greenhouse under controlled growth conditions. 2 to 3 weeks after sowing, the test plants were treated at the one-leaf stage. The compounds of the invention, formulated in the form of wettable powders (WP) or as emulsion concentrates (EC), were applied onto the green parts of the plants as aqueous suspension or emulsion with addition of 0.5% additive at a water application rate of 600 liters per hectare (converted). After the test plants had been kept in the greenhouse under optimum growth conditions for about 3 weeks, the activity of the preparations was rated visually in comparison to untreated controls.
(§5) For example, • 100% efficacy=plants have died, • 0% efficacy=like untreated control plants
(§6) Tables B1a to B12c below show the effects of selected inventive compounds of the general formula (I) according to table 1 on various harmful plants at an application rate corresponding to 1280 g/ha or less, which were obtained by the experimental procedure mentioned above.

Kochia scoparia (KCHSC) [2] = assay: B. Herbicidal post-emergence efficacy, KCHSC; conditions: for Post-emergence efficacy against KCHSC in %: rated visually after about 3 weeks; for Post-emergence efficacy against KCHSC: 1280 g/ha
Procedure: as §4, §5, §6

Stellaria media (STEME) [3] = assay: A. Herbicidal pre-emergence efficacy, STEME
Excerpt: as §1, §2, §3

Kochia scoparia (KCHSC) [4] = assay: A. Herbicidal pre-emergence efficacy, KCHSC
Excerpt: as §1, §2, §3

Stellaria media (STEME) [5] = assay: B. Herbicidal post-emergence efficacy, STEME
Procedure: as §4, §5, §6

[6] = tested on: Amaranthus retroflexus (AMARE); assay: A. Herbicidal pre-emergence efficacy, AMARE
Excerpt: as §1, §2, §3

[7] = tested on: Amaranthus retroflexus (AMARE); assay: B. Herbicidal post-emergence efficacy, AMARE
Procedure: as §4, §5, §6

Veronica persica (VERPE) [8] = assay: B. Herbicidal post-emergence efficacy, VERPE
Procedure: as §4, §5, §6

Poa annua (POAAN) [9] = assay: B. Herbicidal post-emergence efficacy, POAAN; conditions: 1280 g/ha
Procedure: as §4, §5, §6

[10] = tested on: Digitaria sanguinalis (DIGSA); assay: A. Herbicidal pre-emergence efficacy, DIGSA; conditions: scored visually after about 3 weeks vs untreated controls
Excerpt: as §1, §2, §3

[11] = tested on: Abutilon theophrasti (ABUTH); assay: A. Herbicidal pre-emergence efficacy, ABUTH; conditions: scored visually after about 3 weeks vs untreated controls
Excerpt: as §1, §2, §3

Poa annua (POAAN) [12] = assay: A. Herbicidal pre-emergence efficacy, POAAN
Excerpt: as §1, §2, §3

[13] = tested on: Abutilon theophrasti (ABUTH); assay: B. Herbicidal post-emergence efficacy, ABUTH; conditions: rated visually after about 3 weeks
Procedure: as §4, §5, §6

[14] = tested on: Echinochloa crus-galli (ECHCG); assay: A. Herbicidal pre-emergence efficacy, ECHCG; conditions: scored visually after about 3 weeks vs untreated controls
Excerpt: as §1, §2, §3

Veronica persica (VERPE) [15] = assay: A. Herbicidal pre-emergence efficacy, VERPE; conditions: 1280 g/ha
Excerpt: as §1, §2, §3

Lolium rigidum (LOLRI) = assay: A. Herbicidal pre-emergence efficacy, LOLRI; conditions: dosage 1280 g/ha
Excerpt: as §1, §2, §3

[16] = pre-emergence, dosage 1280 g/ha

SMILES	Pre-emergence efficacy against SETVI (Setaria viridis (SETVI); dosage 1280 g/ha)	Post-emergence efficacy against KCHSC in % (Kochia scoparia (KCHSC) [2]; 320 g/ha)	Post-emergence efficacy against KCHSC (Kochia scoparia (KCHSC) [2])	Pre-emergence efficacy against STEME (Stellaria media (STEME) [3]; dosage 1280 g/ha)	Pre-emergence efficacy against KCHSC (Kochia scoparia (KCHSC) [4]; [16])	Post-emergence efficacy against STEME (Stellaria media (STEME) [5]; 320 g/ha)	Post-emergence efficacy against STEME (Stellaria media (STEME) [5]; 1280 g/ha)	Pre-emergence efficacy against AMARE in % ([6]; 80 g/ha)	Pre-emergence efficacy against AMARE in % ([6]; 320 g/ha)	Pre-emergence efficacy against AMARE in % ([6]; 1280 g/ha)	Post-emergence efficacy against AMARE ([7]; 320 g/ha)	Post-emergence efficacy against AMARE ([7]; 1280 g/ha)	Post-emergence efficacy against VERPE (Veronica persica (VERPE) [8]; 80 g/ha)	Post-emergence efficacy against VERPE (Veronica persica (VERPE) [8]; 320 g/ha)	Post-emergence efficacy against VERPE (Veronica persica (VERPE) [8]; 1280 g/ha)	Post-emergence efficacy against POAAN (Poa annua (POAAN) [9])	Pre-emergence efficacy against DIGSA ([10]; 320 g/ha)	Pre-emergence efficacy against DIGSA ([10]; 1280 g/ha)	Pre-emergence efficacy against ABUTH ([11]; 1280 g/ha)	Pre-emergence efficacy against ECHCG ([14]; 1280 g/ha)	other results
O=S(=O)(Oc1ccccc1Oc1ncc(Cl)cn1)C1CCCC1 [Example I-19]	100%	90%	100%	100%	90%	100%	100%	90%	100%	100%	90%	100%	90%	90%	100%	90%	100%	100%	100%	90%	Pre-emergence efficacy against SETVI (Setaria viridis (SETVI); dosage 320 g/ha): 90%; Post-emergence efficacy against ECHCG in % [1]: 90%; Pre-emergence efficacy against STEME (Stellaria media (STEME) [3]; dosage 320 g/ha): 100%; Pre-emergence efficacy against KCHSC (Kochia scoparia (KCHSC) [4]; pre-emergence, dosage 320 g/ha): 90%; Post-emergence efficacy against STEME (Stellaria media (STEME) [5]; 80 g/ha): 90%; Pre-emergence efficacy against DIGSA ([10]; 80 g/ha): 100%; Pre-emergence efficacy against ABUTH ([11]; 320 g/ha): 90%; Pre-emergence efficacy against POAAN (Poa annua (POAAN) [12]; dosage 1280 g/ha): 90%; Post-emergence efficacy against ABUTH in % ([13]; 320 g/ha): 90%; Post-emergence efficacy against ABUTH in % ([13]; 1280 g/ha): 90%
O=S(=O)(Oc1ccccc1Oc1ncc(Cl)cn1)C1CC1 [Example I-21]	100%	100%	100%	100%	100%	90%	100%	100%	100%	100%	100%	100%	90%	100%	100%	100%	100%	100%	100%	100%	Post-emergence efficacy against KCHSC in % (Kochia scoparia (KCHSC) [2]; 80 g/ha): 90%; Pre-emergence efficacy against STEME (Stellaria media (STEME) [3]; dosage 320 g/ha): 100%; Pre-emergence efficacy against KCHSC (Kochia scoparia (KCHSC) [4]; 80 g/ha, scored visually after about 3 weeks vs untreated controls): 90%; Pre-emergence efficacy against KCHSC (Kochia scoparia (KCHSC) [4]; pre-emergence, dosage 320 g/ha): 100%; Post-emergence efficacy against AMARE ([7]; 80 g/ha): 90%; Pre-emergence efficacy against POAAN (Poa annua (POAAN) [12]; dosage 320 g/ha): 100%; Pre-emergence efficacy against POAAN (Poa annua (POAAN) [12]; dosage 1280 g/ha): 100%; Pre-emergence efficacy against VERPE in % (Veronica persica (VERPE) [15]): 90%
CCC(C)S(=O)(=O)Oc1ccccc1Oc1ncc(Cl)cn1 (stereo not drawn) [Example I-22]	100%	90%	100%	100%	100%	90%	90%	90%	90%	100%	90%	100%	90%	100%	100%	90%	100%	100%	100%	90%	Pre-emergence efficacy against SETVI (Setaria viridis (SETVI); dosage 320 g/ha): 90%; Post-emergence efficacy against KCHSC in % (Kochia scoparia (KCHSC) [2]; 80 g/ha): 90%; Pre-emergence efficacy against STEME (Stellaria media (STEME) [3]; dosage 80 g/ha): 100%; Pre-emergence efficacy against STEME (Stellaria media (STEME) [3]; dosage 320 g/ha): 100%; Pre-emergence efficacy against KCHSC (Kochia scoparia (KCHSC) [4]; pre-emergence, dosage 320 g/ha): 90%; Pre-emergence efficacy against LOLRI (Lolium rigidum (LOLRI)): 90%; Post-emergence efficacy against STEME (Stellaria media (STEME) [5]; 80 g/ha): 90%; Pre-emergence efficacy against ABUTH ([11]; 320 g/ha): 100%; Pre-emergence efficacy against POAAN (Poa annua (POAAN) [12]; dosage 1280 g/ha): 90%; Pre-emergence efficacy against VERPE in % (Veronica persica (VERPE) [15]): 90%; Post-emergence efficacy against ABUTH in % ([13]; 320 g/ha): 90%; Post-emergence efficacy against ABUTH in % ([13]; 1280 g/ha): 100%; Pre-emergence efficacy against ECHCG ([14]; 320 g/ha): 90%
O=S(=O)(CCCCl)Oc1ccccc1Oc1ncc(Cl)cc1F [Example I-64]	100%	90%	90%	90%	90%	–	90%	–	90%	100%	90%	90%	90%	90%	90%	90%	90%	100%	–	100%	Post-emergence efficacy against ECHCG in % [1]: 90%; Post-emergence efficacy against KCHSC in % (Kochia scoparia (KCHSC) [2]; 80 g/ha): 90%; Post-emergence efficacy against AMARE ([7]; 80 g/ha): 90%; Pre-emergence efficacy against POAAN (Poa annua (POAAN) [12]; dosage 1280 g/ha): 100%; Pre-emergence efficacy against VERPE in % (Veronica persica (VERPE) [15]): 100%; Post-emergence efficacy against ABUTH in % ([13]; 320 g/ha): 90%; Post-emergence efficacy against ABUTH in % ([13]; 1280 g/ha): 90%
Cc1cccc(Oc2ncc(Cl)cn2)c1OS(=O)(=O)CCCC(F)(F)C(F)(F)F [Example I-69]	100%	100%	100%	90%	90%	90%	100%	90%	100%	100%	100%	100%	100%	100%	100%	90%	–	90%	90%	90%	Post-emergence efficacy against ECHCG in % [1]: 100%; Post-emergence efficacy against KCHSC in % (Kochia scoparia (KCHSC) [2]; 80 g/ha): 90%; Post-emergence efficacy against AMARE ([7]; 80 g/ha): 100%; Pre-emergence efficacy against VERPE in % (Veronica persica (VERPE) [15]): 100%; Post-emergence efficacy against ABUTH in % ([13]; 80 g/ha): 90%; Post-emergence efficacy against ABUTH in % ([13]; 320 g/ha): 90%; Post-emergence efficacy against ABUTH in % ([13]; 1280 g/ha): 100%
